Test results: patent US20050250737A1, “Therapeutic ophthalmic compositions containing retinal friendly excipients and related methods” (Allergan, Inc., priority 2003, published 2005)
Entries after “also recorded” stand apart in the source; their conditions may differ. Each block holds one substance with its values, some of them ahead of it.

Key:
ARPE-19 cells [1] = test: in vitro; conditions: for Reduction of cell survival: 0.1% (w/v), 24, 48 and 72 hour time points
Description: Cell viability and cell morphology were examined to evaluate the toxicity of excipients on retinal pigment epithelial cells. The human retina cell line used in these experiments is the ARPE-19 cell line (human adult-derived retinal pigmented epithelial cells). […] They form tight-junctions with transepithelial resistance of monolayers (Dunn K C et al., supra). From a molecular standpoint, it appears that ARPE-19 express a huge pattern of genes similar to those expressed by human RPE from fresh explant which could account for their physiological function (Klimanskaya I. et al., “Derivation and comparative assessment of retinal pigment epithelium from human embryonic stem cells using transcriptomics”, Cloning and Stem Cells, 2004, 6(3):217-45).
ARPE-19 cells are widely used as a retinal model that resemble physiological properties of RPE cells. Similar methods of culturing ARPE-19 cells and cytotoxicity assays can be found in Yeung et al., “Cytotoxicity of triamcinolone on cultured human retinal pigment epithelial cells: comparison with dexamethasone and hydrocortisone”, Jpn J. Ophthalmol, 2004; 48:236-242. Cell viability and cell morphology were examined using conventional colormetric and visual methods. Viability and morphology measurements were obtained at 24 hours, 48 hours, and 72 hours after exposure to an excipient composition.
To assess cell viability, mitochondrial metabolism was quantified through conventional colorometric assays (i.e., the MTT assay). This calorimetric assay utilizes 3-(4,5-dimethylthiazol-2-yl)-2,5-diphenyltetrazolium bromide (MTT) and correlates mitochondrial metabolism and cell viability through measurement of dehydrogenase activity which converts a substrate into crystal. More specifically, the assay measures the activity of living cells through mitochondrial dehydrogenases. When dissolved in culture cell medium, MTT solution appears dark orange. Mitochondrial dehydrogenases of viable cells degrade MTT by cleaving the tetrazolium ring yielding to formation of a purple formazan crystal, which is insoluble in water. Crystals are subsequently dissolved in isopropanol solution. A resulting purple solution is spectrophotometrically measured. Cell viability is relative to amount of formazan and calculated as a percentage of remaining treated compared to non-treated cells.
Results from the MTT assay were expressed as a percentage of cell viability calculated using the following equation: % cell viability=ODtest/ODcontrol×100.
For each experiment, one concentration was performed in triplicate. Each point was spectrophotometrically read twice. Average of readings was calculated, then average from these 3 values was determined.
After 3 experiments were independently completed under the same conditions, a graph was plotted with cell viability expressed as a function of concentration (dose response) and for various incubation period (time course). The IC50 was then estimated based on the graphed data.
More specifically, cell density in 24-multiwell plates was observed on the day of the experiment to check if confluence of the cells was reached. Aliquots of MTT concentrated solutions were removed from a freezer at −20° C. and thawed at room temperature. Cell medium was warmed at 37° C. before use. Appropriated tubes for diluting compounds were prepared. Higher concentrations of each excipient agent was prepared. Serial dilution was then performed in cell medium (DMEM:F12+10% FBS).
Cell culture medium in the 24-well plate was removed using vacuum-pump. Cells were then stimulated with 0.5 ml final volume for each concentration of one given excipient agent. Distribution of the excipient-containing solution was performed using automated pipet-aid in sterile environment (under PSM) or not depending on time of compounds and duration of incubation.
After stimulation, cells were replaced in a CO2 incubator for the required time of exposure.

[2] = pH of excipient-containing incubating solutions; type: physicochemical
Description: (§1) For each concentration of tested compound, pH and osmolarity parameters were measured.

ARPE-19 cells [3] = type: cell-based
Description: Cell morphology was visualized using light microscopy. Cell morphology observation using light microscopy permits determination of (i) cell number and density and (ii) whether or not cells in contact with an excipient agent display modified phenotype compared to a non-treated population of cells.
Cell morphology was analyzed in parallel by semi-quantitative scoring ranging from 5 to 1, from basal to lethal phenotype respectively, as shown in FIG. 23.
More specifically, cells were removed from an incubator for examination. Morphological shape of cells was visualized using a light microscope and CCD camera. Every 3 wells of a given concentration was observed through image analysis software. Then, a representative photograph describing the average appearance of cells was saved. The supernatant was either, kept for further predefined experiments to perform, or removed using vacuum-pump.
Resulting semi-quantitative scoring is represented as a function of time course and dose response. Score 5 : wild type phenotype of non-treated cells, 100% confluent adherent cells. This phenotype very much vary following post-seeding time. For example, at confluence ARPE-19 cells at 1 day appear well defined with visible outer membrane and dark grey cytoplasm. After 3 days of confluence, limits between cells become less visible and cells adopt a more hexagonal shape and constitute an epithelium-like uniform dense structure. Score 4: density <100%. Cell shape has changed, some spaces are present between cells, few cells possibly detached. Score 3: 80% <Cell density <40%. Spaces are sometimes present among cells, areas appears confluent while in others, cells detached. General cell shape starts showing non negligible alterations. Score 2: Cell density <50%. Cells adopt exclusively stressed appearance, presence of mass dead floating cells. Score 1: Cell density <10%. Presence of almost exclusively dead cells.
Based on quotation, each condition of the applied compound was given a score which allow to a morphology evolution profile to be prepared, ie. cell morphology as a function of compound concentration and time of exposure. […]

[4] = Osmolarity of excipient-containing incubating solutions; type: physicochemical
Description: Osmolarity was measured using osmometer type 13/13DR from Roebling (Berlin, GR).
as §1

pH of excipient dilution ([2]; 0.1% in culture medium): 7.6
pH of excipient dilution ([2]; 0.5% in culture medium): 7.6
pH of excipient dilution ([2]; 1% in culture medium): 7.6
pH of excipient dilution ([2]; 5% in culture medium): 7.6
pH of excipient dilution ([2]; 10% in culture medium): 7.6
pH of excipient dilution ([2]; 20% in culture medium): 7.6
Substance: hydroxypropyl gamma-cyclodextrin [Cavasol]
Effect on both cell parameters (viability, morphology) (ARPE-19 cells [1]): no measurable effect on both cell parameters
Viable cells (ARPE-19 cells [1]): approximately 80%
Percentage of living cells (ARPE-19 cells [1]; 0.05 to 10%, after recovery (later than 24 h)): > 80%
Reduction of cell survival (ARPE-19 cells [1]): ≤ 10%
Cell survival (% of the initial value) (ARPE-19 cells [1]; 10% (w/v)): about 80%
IC50 (cell viability), statement in words (ARPE-19 cells [1]; at the tested concentrations and incubation times): not possible to determine the IC50

Substance: hydroxypropyl beta-cyclodextrin [Kleptose®]
Decrease of cell viability (ARPE-19 cells [1]): about 40%
Reduction of cell survival (ARPE-19 cells [1]): 20-30%
Cell survival (% of the initial value) (ARPE-19 cells [1]; 1% (w/v)): about 70%
Cell survival (ARPE-19 cells [1]; 5% (w/v), 24 h): complete disappearance of living cells; also recorded: about 20%
IC50 (50% cell viability inhibition, MTT) (ARPE-19 cells [1]; ARPE-19, all incubation times 24-72 h, estimated from graph): about 2.2%
MTT IC50 (%) (ARPE-19 cells [1]; ARPE-19 cells, summary Table 3): 2.2-2.5%
Morphology limit concentration (%) (ARPE-19 cells [3]): 2.6-3%
pH of excipient dilution ([2]; 0.1% in culture medium): 7.6
pH of excipient dilution ([2]; 0.5% in culture medium): 7.6
pH of excipient dilution ([2]; 1% in culture medium): 7.5
pH of excipient dilution ([2]; 5% in culture medium): 7.5
pH of excipient dilution ([2]; 10% in culture medium): 7.5
pH of excipient dilution ([2]; 20% in culture medium): 7.6
Osmolarity of excipient dilution ([4]; 0.1% in culture medium): 309 mOsm
Osmolarity of excipient dilution ([4]; 0.5% in culture medium): 317 mOsm
Osmolarity of excipient dilution ([4]; 1% in culture medium): 325 mOsm
Osmolarity of excipient dilution ([4]; 5% in culture medium): 375 mOsm
Osmolarity of excipient dilution ([4]; 10% in culture medium): 459 mOsm
Osmolarity of excipient dilution ([4]; 20% in culture medium): 635 mOsm

Substance: hyaluronic acid [HA]
Cell viability (ARPE-19 cells [1]): ~25%
